For experiment [1], the system named is NCI-H2122 NSCLC CDX. Description: NCI-H2122 NSCLC CDX model. Format: in vivo. The note with it: RMC-6272 10 mg/kg ip once weekly; sotorasib 100 mg/kg po qd; single agents or combination. As for the experimental part: groups when mean tumor volume reached 400–600 mm 3. Tumor and plasma samples were collected for PK and PD analysis at indicated time points after a single dose of indicated […]
doses. Everolimus was formulated in v/v/v/, 30/5/65 Propylene glycol/Tween 80/H 2O.
NCI-H2122 xenograft studies. Female Balb/c nude mice (Beijing V.R Biotechnology Co. […]
per inoculation. When mean tumor volume reached between 150–200 mm 3, mice were […]
Transcutol/Solutol HS 15/H 2O. Sotorasib (AMG 510) was administered by oral gavage at 100 mg/kg daily and formulated in 2% (w/v) HPMC E-50, 0.5% Tween 80 in 50 mM sodium citrate […]
In vivo pharmacodynamics. Snap frozen tumors collected were homogenized with MSD complete lysis buffer (as prepared according to Meso Scale Discovery kit protocol) using PreCellys Bead Shaker (Bertin Instruments) according to manufacturer's protocol. Phospho-4E-BP1(Thr37/46) Whole Cell Lysate Kit (Meso Scale Discovery) was used to quantify phosphorylation of 4E-BP1 in the tumors according to manufacturer's protocol.
Expression and purification of FKBP12, FRB domain, and RHEB-GTPγS. DNA pET28

Experiment [2] relates to p-P70S6K Thr389. Briefly: AlphaLISA/MSD analysis of S6K phosphorylation in MDA-MB-468 cells. The note with it: MDA-MB-468 cells; for IC50: read-out: pS6K IC50. Format: cell-based. As for the experimental part:
(§1) Cell culture and reagents. Cells were obtained from ATCC, grown in appropriate medium supplemented with 10% fetal bovine serum and 1% penicillin/streptomycin and maintained at 37 °C in a humidified incubator at 5% CO 2.
(§2) AlphaLISA and MesoScale Discovery (MSD) analysis of 4EBP1, S6K and AKT phosphorylation. mTOR substrate phosphorylation in MDA-MB-468 cells was assayed using AlphaLISA SureFire Ultra kits for p4EBP1 Thr37/46, p-P70S6K Thr389 and p-AKT1/2/3 Ser473 (PerkinElmer), and MSD Multi-Array Assay Systems for Phospho-4EBP1 (Thr37/46) and Phospho-AKT (Ser473) (MSD). Cells were seeded at 25,000 cells per well and exposed the next day to serial three-fold dilutions of compounds in complete medium with 0.1% dimethylsulfoxide (DMSO). After indicated incubation times, cells were lysed and AlphaLISA or MSD performed according to the manufacturers’ protocols. Samples were read using an EnVision Multilabel Plate Reader (PerkinElmer) using standard AlphaLISA settings or using an MSD plate reader. Data were plotted as a function of logM [compound] with a sigmoidal concentration response (variable slope) model fitted to the data to estimate the inhibitor half-maximum effective concentration (EC 50) in Prism 7 (GraphPad). Alternatively, results were analyzed as percentage of control in which 0% was set as signal from 1 μM Torin1 and 100% was set as the mean of DMSO wells on each plate, and inhibitor EC 50 was estimated as described
Background: Alpha assays give light when donor and acceptor beads are brought close together.

The subject of experiment [3] is 4EBP1 T37/T46 phosphorylation (mTORC1). Briefly: AlphaLISA/MSD analysis of 4EBP1 phosphorylation in MDA-MB-468 cells. Format: cell-based. The note with it: for IC50: MDA-MB-468 cells, read-out: p4EBP1 IC50. The method, then: as §1, §2
The subject of experiment [4] is AKT S473 phosphorylation (mTORC2). Description: AlphaLISA/MSD analysis of AKT phosphorylation in MDA-MB-468 cells. The note with it: MDA-MB-468 cells, read-out: pAKT IC50. The class given is cell-based. The method, then: as §1, §2
The subject of experiment [5] is tumor p4EBP1. Description: Tumor PD after a single dose in the MCF-7 CDX model. The note with it: MCF-7 CDX. The class given is in vivo, mice.
The target in experiment [6] is T1, FKBP12 (Homo sapiens, UniProt P62942).
T1 construct: Proteros biostructures GmbH (ran the assay)
T1 sequence (P62942 whole entry): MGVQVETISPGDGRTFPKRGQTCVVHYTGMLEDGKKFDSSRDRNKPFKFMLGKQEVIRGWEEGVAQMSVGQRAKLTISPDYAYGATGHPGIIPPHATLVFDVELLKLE
Briefly: FKBP12 binding affinity, fluorescent probe displacement assay.
Procedure: Thermo Fisher Scientific catalog no. A15112) in 50 mM HEPES pH 7.5, 0.01% polysorbate 20, 1 mM EGTA and 10 mM MnCl 2. Compounds were diluted in DMSO, and assay was initiated by mixing 160 nl of compound with 16 μL of assay mixture, resulting in a final DMSO
concentration of 1%. Reactions were mixed for 30 s on an orbital shaker and incubated for 1 h at

The target of experiment [7] is T2, FKBP12-FRB (Homo sapiens, UniProt P42345+P62942).
T2 construct: human mTOR (residues 1360-2549); purchased Thermo Fisher Scientific (ran the assay)
T2 sequence (P62942 whole entry, the tested form may be a part): as the sequence (P62942 whole entry) above
T2 sequence (P42345 1360-2549 limits assumed): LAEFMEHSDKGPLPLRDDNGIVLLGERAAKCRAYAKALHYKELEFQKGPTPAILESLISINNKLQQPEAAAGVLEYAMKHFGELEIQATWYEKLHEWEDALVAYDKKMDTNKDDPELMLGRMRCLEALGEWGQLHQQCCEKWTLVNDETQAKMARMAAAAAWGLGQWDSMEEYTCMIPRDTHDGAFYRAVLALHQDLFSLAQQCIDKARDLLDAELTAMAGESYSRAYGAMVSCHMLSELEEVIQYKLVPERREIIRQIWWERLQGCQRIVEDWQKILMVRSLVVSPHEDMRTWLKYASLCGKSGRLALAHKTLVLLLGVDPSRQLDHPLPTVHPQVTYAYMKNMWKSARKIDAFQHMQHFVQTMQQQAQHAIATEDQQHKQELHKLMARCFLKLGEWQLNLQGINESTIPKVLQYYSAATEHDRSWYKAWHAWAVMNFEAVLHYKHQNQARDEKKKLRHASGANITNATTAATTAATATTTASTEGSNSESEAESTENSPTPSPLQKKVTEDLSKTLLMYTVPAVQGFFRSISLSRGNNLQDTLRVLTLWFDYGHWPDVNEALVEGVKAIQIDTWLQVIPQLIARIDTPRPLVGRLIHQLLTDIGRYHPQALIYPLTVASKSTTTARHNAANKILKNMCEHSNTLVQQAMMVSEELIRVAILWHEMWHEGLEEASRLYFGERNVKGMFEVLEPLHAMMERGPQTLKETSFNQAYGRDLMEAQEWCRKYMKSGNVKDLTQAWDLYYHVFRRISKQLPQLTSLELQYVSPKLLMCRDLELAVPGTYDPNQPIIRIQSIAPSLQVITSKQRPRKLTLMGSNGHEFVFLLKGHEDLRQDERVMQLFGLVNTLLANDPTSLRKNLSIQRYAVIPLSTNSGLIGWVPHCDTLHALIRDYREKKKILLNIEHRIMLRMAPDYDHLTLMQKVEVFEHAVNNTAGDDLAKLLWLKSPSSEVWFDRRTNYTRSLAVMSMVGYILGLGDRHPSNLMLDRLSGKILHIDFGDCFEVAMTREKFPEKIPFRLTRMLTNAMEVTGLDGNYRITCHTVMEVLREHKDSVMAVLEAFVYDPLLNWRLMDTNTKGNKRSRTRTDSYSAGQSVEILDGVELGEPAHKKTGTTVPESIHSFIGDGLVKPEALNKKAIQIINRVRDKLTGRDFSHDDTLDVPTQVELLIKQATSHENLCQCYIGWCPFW
Briefly: TR-FRET ternary complex assay. Format: binding. The note with it: at the assay detection limit. As for the experimental part: Proteros biostructures GmbH, using a fluorescent probe displacement assay. […]
same conditions, with 6 nM fluorescent probe present. 50 nL compound in DMSO was added to […]
11 different concentrations of compound with a 3-fold dilution factor were tested. After a 6 h incubation at room temperature acceptor fluorescence was read on a plate reader. […]
displacement) were calculated using standard fitting algorithms. The reporter probe is used at a concentration reflecting the tenfold concentration of its own Kd (probe) value. Thus, according to the Cheng Prusoff equation, the Kd value can be calculated with Kd = IC 50 / (1 + (([10 x Kd probe]) / [Kd probe]) = IC 50 / 11.
TR–FRET ternary complex assay. Assay was performed by Thermo Fisher Scientific, using a modification of a previously described protocol. 1 A homogeneous assay mixture was prepared […]
Thermo Fisher Scientific catalog no. A15112) in 50 mM HEPES pH 7.5, 0.01% polysorbate 20, 1 mM EGTA and 10 mM MnCl 2. […]
Nanosyn Lipid Kinase screen. Biochemical inhibition of lipid and related protein kinases was determined by Nanosyn (Santa Clara, CA). […]
was determined by detection of fluorescent substrates using a microfluidic electrophoresis mobility shift assay with a LabChip3000 instrument (Caliper/PerkinElmer). […]

Experiment [8] deals with Candida albicans. The note with it: 10 strains of yeast Candida albicans; cited from earlier work.

“Also recorded” adds a separate entry of the source. Like-named read-outs stand apart in the source and are kept apart here.

Regarding `C=CC(=O)N1CCN(c2nc(=O)n(-c3c(C)ccnc3C(C)C)c3nc(-c4c(O)cccc4F)c(F)cc23)[C@@H](C)C1` [sotorasib], the “antitumor activity (tumor regressions) in NCI-H2122 CDX model” value in experiment [1] is “Neither; also recorded: only modest inhibition of tumor growth”.

The term IC50 denotes the concentration needed to halve the response being measured. Turning to `CO[C@H]1C[C@@H]2CC[C@@H](C)[C@@](O)(O2)C(=O)C(=O)N2CCCC[C@H]2C(=O)O[C@H]([C@H](C)C[C@@H]2CC[C@@H](OCCO)[C@H](OC)C2)CC(=O)[C@H](C)/C=C(\C)[C@@H](O)[C@@H](OC)C(=O)[C@H](C)C[C@H](C)/C=C/C=C/C=C/1C` [compound 4, everolimus, reference compound], the results for the concentration for half-maximal inhibition (IC50) in experiment [2] (Homo sapiens), in experiment [3] (Homo sapiens) and in experiment [4] (Homo sapiens) were 0.07 nM, greater than 1000 nM and greater than 1000 nM, respectively. Further, the “effect on tumor p4EBP1 levels” value in experiment [5] (single dose (38, 40 ip; everolimus 5 mg/kg oral)) is recorded as “minimal effect”.

In general, Kd refers to the constant that tells how readily two partners part at equilibrium. Higher therefore signals lower affinity. The term EC50 denotes the midpoint of the concentration-response curve. Read a low EC50 as an effect from little substance. On to `CO[C@H]1C[C@@H]2CC[C@@H](C)[C@@](O)(O2)C(=O)C(=O)N2CCCC[C@H]2C(=O)O[C@H]([C@H](C)C[C@@H]2CC[C@@H](O)[C@H](OC)C2)C[C@@H](OC)[C@H](C)/C=C(\C)[C@@H](O)[C@@H](OC)C(=O)[C@H](C)C[C@H](C)/C=C/C=C/C=C/1C` [compound 12, C32-methoxy rapamycin], for which the 50% inhibitory concentration (IC50) in experiment [2] (Homo sapiens) is 0.37 nM; in experiment [3] (Homo sapiens), greater than 1000 nM; in experiment [4] (Homo sapiens), greater than 1000 nM. Moreover, the “decrease in potency (pS6K) relative to rapamycin 1” value in experiment [2] is given as 6 fold. Binding in experiment [6] was characterised by a dissociation constant (Kd) of 701 nM. Moreover, the “decrease in affinity for FKBP12 relative to rapamycin 1” value in experiment [6] is roughly 1600 fold. This compound yielded an EC50 in experiment [7] of less than 10 nM.

Compound `CO[C@H]1C[C@@H]2CC[C@@H](C)[C@@](O)(O2)C(=O)C(=O)N2CCCC[C@H]2C(=O)O[C@H]([C@H](C)C[C@@H]2CC[C@@H](O)[C@H](OC)C2)C[C@@H](O)[C@H](C)/C=C(\C)[C@@H](O)[C@@H](OC)C(=O)[C@H](C)C[C@H](C)/C=C/C=C/C=C/1C` [compound 11, C32-hydroxy rapamycin] displayed a Kd in experiment [6] of 13.3 nM.

As to `CO[C@H]1C[C@@H]2CC[C@@H](C)[C@@](O)(O2)C(=O)C(=O)N2CCCC[C@H]2C(=O)O[C@H]([C@H](C)C[C@@H]2CC[C@@H](O)[C@H](OC)C2)CC(=O)[C@H](C)/C=C(\C)[C@@H](O)[C@@H](OC)C(=O)[C@H](C)C[C@H](C)/C=C/C=C/C=C/1C` [compound 1, Rapamycin, reference compound], the IC50 in experiment [4] (Homo sapiens) is greater than 1000 nM. Further, in experiment [8], the minimum inhibitory concentration is 0.02 to 0.2 µg/mL.

`CO[C@H]1C[C@@H]2CC[C@@H](C)[C@@](O)(O2)C(=O)C(=O)N2CCCC[C@H]2C(=O)O/C([C@H](C)C[C@@H]2CC[C@@H](OC(=O)NCCOCCOCCOCCOCCOCCOCCOCCOCCC(=O)N3CCc4cc(Cn5nc(-c6ccc7oc(N)nc7c6)c6c(N)ncnc65)ccc4C3)[C@H](OC)C2)=C/C(=O)[C@H](C)/C=C(\C)[C@@H](O)[C@@H](OC)C(=O)[C@H](C)C[C@H](C)/C=C/C=C/C=C/1C` [compound 33]: the concentration for half-maximal inhibition (IC50) in experiment [2] (Homo sapiens) is 80 nM; in experiment [3] (Homo sapiens) it was 320 nM; in experiment [4] (Homo sapiens) it was greater than 1000 nM.

As for `CO[C@H]1C[C@@H]2CC[C@@H](C)[C@@](O)(O2)C(=O)C(=O)N2CCCC[C@H]2C(=O)O[C@H]([C@H](C)C[C@@H]2CC[C@@H](OCCCCc3cn(CCOCCOCCOCCOCCOCCOCCOCCOCCC(=O)N4CCc5cc(Cn6nc(-c7ccc8oc(N)nc8c7)c7c(N)ncnc76)ccc5C4)nn3)[C@H](OC)C2)CC(=O)[C@H](C)/C=C(\C)[C@@H](O)[C@@H](OC)C(=O)[C@H](C)C[C@H](C)/C=C/C=C/C=C/1C` [compound 21], the half-inhibitory concentration (IC50) in experiment [2] (Homo sapiens) is 0.13 nM; in experiment [3] (Homo sapiens) it was 0.44 nM; in experiment [4] (Homo sapiens), 8.8 nM.

As to `CO[C@H]1C[C@@H]2CC[C@@H](C)[C@@](O)(O2)C(=O)C(=O)N2CCCC[C@H]2C(=O)O[C@H]([C@H](C)C[C@@H]2CC[C@@H](OCCCCc3cn(CCOCCOCCOCCOCCOCCOCCOCCOCCC(=O)NCCCCn4nc(-c5ccc6oc(N)nc6c5)c5c(N)ncnc54)nn3)[C@H](OC)C2)CC(=O)[C@H](C)/C=C(\C)[C@@H](O)[C@@H](OC)C(=O)[C@H](C)C[C@H](C)/C=C/C=C/C=C/1C` [compound 16], the IC50 in experiment [2] (Homo sapiens) was found to be 0.42 nM; in experiment [3] (Homo sapiens), 1.1 nM; in experiment [4] (Homo sapiens), 3.1 nM.

With `CC(C)n1nc(-c2ccc3oc(N)nc3c2)c2c(N)ncnc21` [compound 5, sapanisertib, reference compound], the IC50 in experiment [4] (Homo sapiens) was determined as 1.8 nM. Further, the “inhibition of tumor p4EBP1” value in experiment [5] (4 h after intraperitoneal dosing at 1 mg/kg) is reported as greater than 80%.

Consider `CO[C@@H](C[C@@H]1CC[C@@H](C)[C@](O)(C(=O)C(=O)N2CCCC[C@H]2C(=O)O)O1)/C(C)=C/C=C/C=C/[C@@H](C)C[C@@H](C)C(=O)[C@H](OC)[C@H](O)/C(C)=C/[C@@H](C)C(=O)/C=C\[C@H](C)C[C@@H]1CC[C@@H](OCCCCc2cn(CCOCCOCCOCCOCCOCCOCCOCCOCCC(=O)NCCCCn3nc(-c4ccc5oc(N)nc5c4)c4c(N)ncnc43)nn2)[C@H](OC)C1` [compound 32], for which the 50% inhibitory concentration (IC50) in experiment [2] (Homo sapiens) amounted to 59 nM; in experiment [3] (Homo sapiens) it was 180 nM; in experiment [4] (Homo sapiens), 450 nM.

As for BGT226 [compound 7, reference compound], the IC50 worked out at 0.27 nM in experiment [2], 4.4 nM in experiment [3] and 1.4 nM in experiment [4]. In addition, the “selectivity (mTORC1/mTORC2 ratio)” value in experiment [3] (pAKT IC50 versus p4EBP1 IC50, MDA-MB-468 cells) turned out to be 0.3.

These data come from PMC9841523 (Journal of Medicinal Chemistry, 2022).
